Assay results published in patent publication EP3227262B1, “SULFIDE ALKYL AND PYRIDYL REVERSE SULFONAMIDE COMPOUNDS FOR HBV TREATMENT” (Novira Therapeutics Inc., priority 2014, dated 2016).

What was measured:
HBV [1] = assay: Inhibition of HBV replication dot-blot assay in HBV-producing hepatoma cell line; format: cell-based; conditions: Hepatitis B virus, 144 h; activity in Dot-Blot assay; HepG2-2.2.15 cells; reduction in HBV DNA levels, six days
Description: Compounds active in the HBV assembly assay are tested for their activity and toxicity in cellular assay. In the first anti-viral assay, the ability of compounds to inhibit HBV replication in an HBV-producing hepatoma cell line using the dot-blot method is evaluated.
(§1) Briefly, confluent monolayers of HepG2-2.2.15 cells are incubated with complete medium containing various concentrations of a test compound. Three days later, the culture medium is replaced with fresh medium containing the appropriately diluted test compound. Six days following the initial administration of the test compound, the cell culture supernatant is collected, and cell lysis is performed. The samples are applied onto Nylos membranes and DNA is immobilized to the membrane by UV cross-linking. After pre-hybridization, the HBV probe is added and the hybridization is performed overnight. The membranes are exposed to the KODAK films; antiviral activity is calculated from the reduction in HBV DNA levels (EC50). The EC50 for antiviral activity is calculated from the dose response curves of active compounds. Assay performance over time is monitored by the use of the standard positive control compounds ETV, BAY 41-4109, and HAP-1.
Selected compounds are tested for their activity and toxicity in cellular assay. In the first anti-viral assay, the ability of compounds to inhibit HBV replication in an HBV-producing hepatoma cell line using the dot-blot method is evaluated.
as §1, with “Confluent monolayers” for “Briefly, confluent monolayers”, “lysis was” for “lysis is”

HBV [2] = assay: HBV replication inhibition assay (encapsidated HBV DNA in supernatant, bDNA QuantiGene); format: cell-based; conditions: Hepatitis B virus, 144 h, HepG2.2.15 cells, supernatant at day 6, read-out: Extra HBV DNA

SMILES | EC50 (HBV [1]) [µM] | EC50 (HBV [2]) [µM]
O=C(Nc1cc(F)c(F)c(F)c1)c1ccc(F)c(SC2CCC(O)CC2)c1 (mixture of isomers) [Compound 10, (cis/trans)-4-Fluoro-3-((4-hydroxycyclohexyl)thio)-N-(3,4,5-trifluorophenyl)benzamide] | < 10 | 0.09
O=C(Nc1ccc(F)c(Cl)c1)c1ccc(F)c(SC2CCC(O)CC2)c1 (mixture of isomers) [Compound 24, (cis/trans)-N-(3-Chloro-4-fluorophenyl)-4-fluoro-3-((4-hydroxycyclohexyl)thio)benzamide] | < 10 | 0.042
O=C(Nc1cc(F)c(F)c(F)c1)c1ccc(F)c(SC2CCC(C(=O)O)CC2)c1 (mixture of isomers) [Compound 62, (cis/trans)-4-((2-Fluoro-5-((3,4,5-trifluorophenyl)carbamoyl)phenyl)thio)cyclohexanecarboxylic acid] | < 10 | 0.71
O=C(Nc1ccc(F)c(F)c1)c1ccc(F)c(SC2CCC(C(=O)O)CC2)c1 (mixture of isomers) [Compound 63, (cis/trans)-4-((S-((3,4-Difluorophenyl)carbamoyl)-2-fluorophenyl)thio)cyclohexanecarboxylic acid] | < 10 | 1.6
O=C(Nc1cc(F)c(F)c(F)c1)c1ccc(F)c(SC2CC3C(C2)C3C(=O)O)c1 (mixture of isomers) [Compound 98, (cis/trans)-3-((2-fluoro-5-((3,4,5-trifluorophenyl)carbamoyl)phenyl)thio)bicyclo[3.1.0]hexane-6-carboxylic acid] | < 10 | 1.3
CS(=O)(=O)NC(=O)C1C2CC(Sc3cc(C(=O)Nc4cc(F)c(F)c(F)c4)ccc3F)CC21 (mixture of isomers) [Compound 99, (cis/trans)-3-((2-Fluoro-5-((3,4,5-trifluorophenyl)carbamoyl)phenyl)thio)-N-(methylsulfonyl)bicyclo[3.1.0]hexane-6-carboxamide] | < 10 | 4
CC(O)CCSc1cc(C(=O)Nc2cc(F)c(F)c(F)c2)ccc1F (racemic) [Compound 18, (±)-4-Fluoro-3-((3-hydroxybutyl)thio)-N-(3,4,5-trifluorophenyl)benzamide] | < 10 | 0.57
O=C1CCCCC(Sc2cccc(C(=O)Nc3ccc(F)c(Cl)c3)c2)C1 (racemic) [Compound 38, (±)-N-(3-Chloro-4-fluorophenyl)-3-((3-oxocycloheptyl)thio)benzamide] |  | 1.27
O=C(Nc1ccc(F)c(Cl)c1)c1cccc(S[C@H]2CCCC[C@@H](O)C2)c1 (racemic) [Compound 39A, (±)-N-(3-Chloro-4-fluorophenyl)-3-(((1S,3R)-3-hydroxycycloheptyl)thio)benzamide] |  | 1.29
O=C(Nc1ccc(F)c(Cl)c1)c1cccc(S[C@@H]2CCCC[C@@H](O)C2)c1 (racemic) [Compound 39B, (±)-N-(3-Chloro-4-fluorophenyl)-3-(((1R,3R)-3-hydroxycycloheptyl)thio)benzamide] |  | 1.29
O=C(Nc1ccc(F)c(Cl)c1)c1ccnc(NS(=O)(=O)C2CCC(O)C2)c1 (racemic) [Compound 186, (±)-N-(3-Chloro-4-fluorophenyl)-2-(3-hydroxycyclopentanesulfonamido)isonicotinamide] | < 10 | 2.7
O=C(Nc1cc(F)c(F)c(F)c1)c1ccc(F)c(SC2CCCCC2)c1 [Compound 2, 3-(Cyclohexylthio)-4-fluoro-N-(3,4,5-trifluorophenyl)benzamide] | < 10 | 0.138
O=C(Nc1cc(F)c(F)c(F)c1)c1ccc(F)c(SC2CCOCC2)c1 [Compound 4, 4-Fluoro-3-((tetrahydro-2H-pyran-4-yl)thio)-N-(3,4,5-trifluorophenyl)benzamide] | < 10 | 0.22
O=C(Nc1ccc(F)c(Cl)c1)c1cccc(SCCCO)c1 [Compound 40, N-(3-Chloro-4-fluorophenyl)-3-((3-hydroxypropyl)thio)benzamide] |  | 0.76
O=C(Nc1ccc(F)c(Cl)c1)c1cc(NS(=O)(=O)C2CC2)ccn1 [Compound 126, N-(3-Chloro-4-fluorophenyl)-4-(cyclopropanesulfonamido)picolinamide] |  | 1
O=C(Nc1ccc(F)c(Cl)c1)c1ccnc(NS(=O)(=O)c2cccs2)c1 [Compound 141, N-(3-Chloro-4-nuorophenyl)-2-(thiophene-2-sulfonamido)isonicotinamide] | < 10 | 
O=C(Nc1ccc(F)c(Cl)c1)c1cc(NS(=O)(=O)C2CC2)ncc1F [Compound 144, N-(3-Chloro-4-fluorophenyl)-2-(cyclopropanesulfonamido)-5-fluoroisonicotinamide] | < 10 | 

SMILES | EC50 (HBV [1]) [µM] | EC50 (HBV [2]) [µM]
O=C(Nc1ccc(F)c(Cl)c1)c1cc(NS(=O)(=O)C2CC2)ncc1Cl [Compound 149, 5-Chloro-N-(3-chloro-4-fluorophenyl)-2-(cyclopropanesulfonamido)isonicotinamide] | < 10 | 
O=C(Nc1ccc(F)c(Cl)c1)c1ccnc(NS(=O)(=O)CC2CCCC2)c1 [Compound 150, N-(3-Chloro-4-fluorophenyl)-2-(cyclopentylmethylsulfonamido)isonicotinamide] | < 10 | 
Cc1ccc(CS(=O)(=O)Nc2cc(C(=O)Nc3ccc(F)c(Cl)c3)ccn2)cc1 [Compound 152, N-(3-Chloro-4-fluorophenyl)-2-(p-tolylmethylsulfonamido)isonicotinamide] | < 10 | 
CC(C)(C)S(=O)(=O)Nc1cc(C(=O)Nc2ccc(F)c(Cl)c2)ccn1 [Compound 154, N-(3-Chloro-4-fluorophenyl)-2-(1,1-dimethylethylsulfonamido)isonicotinamide] | < 10 | 
O=C(Nc1ccc(F)c(Cl)c1)c1ccnc(NS(=O)(=O)CC2(O)CCC2)c1 [Compound 155, N-(3-Chloro-4-fluorophenyl)-2-((1-hydroxycyclobutyl)methylsulfonamido) isonicotinamide] | < 10 | 
CC(C)(O)CS(=O)(=O)Nc1cc(C(=O)Nc2ccc(F)c(Cl)c2)ccn1 [Compound 156, N-(3-Chloro-4-fluorophenyl)-2-(2-hydroxy-2-methylpropylsulfonamido) isonicotinamide] | < 10 | 
CC(C)S(=O)(=O)Nc1cc(C(=O)Nc2ccc(F)c(Cl)c2)ccn1 [Compound 163, N-(3-Chloro-4-fluorophenyl)-2-(1-methylethylsulfonamido)isonicotinamide] | < 10 | 
CC(C)(C)CS(=O)(=O)Nc1cc(C(=O)Nc2ccc(F)c(Cl)c2)ccn1 [Compound 164, N-(3-Chloro-4-fluorophenyl)-2-(2,2-dimethylpropylsulfonamido)isonicotinamide] | < 10 | 
CC(C)S(=O)(=O)Nc1cc(C(=O)Nc2ccc(F)c(F)c2)ccn1 [Compound 165, N-(3,4-Difluorophenyl)-2-(1-methylethylsulfonamido)isonicotinamide] | < 10 | 
COc1ccc(CCS(=O)(=O)Nc2cc(C(=O)Nc3ccc(F)c(Cl)c3)ccn2)cc1 [Compound 173, N-(3-Chloro-4-fluorophenyl)-2-(2-(4-methoxyphenyl)ethylsulfonamido)isonicotinamide] | < 10 | 
Cc1cc(NC(=O)c2ccc(F)c(NS(=O)(=O)c3ccn(C)n3)c2)ccc1F [Compound 197, 4-fluoro-N-(4-fluoro-3-methylphenyl)-3-(1-methyl-1H-pyrazole-3-sulfonamido)benzamide] | < 10 | 
COCCS(=O)(=O)Nc1cccc(C(=O)Nc2ccc(F)c(Cl)c2)c1 [Compound 198, N-(3-chloro-4-fluorophenyl)-3-(2-methoxyethylsulfonamido)benzamide] | < 10 | 
O=C(Nc1ccc(F)c(Cl)c1)c1cccc(NS(=O)(=O)c2cccs2)c1 [Compound 199, N-(3-chloro-4-fluorophenyl)-3-(thiophene-2-sulfonamido)benzamide] | < 10 | 
O=C(Nc1ccc(F)c(Cl)c1)c1cccc(NS(=O)(=O)c2cn[nH]c2)c1 [Compound 200, N-(3-chloro-4-fluorophenyl)-3-(1H-pyrazole-4-sulfonamido)benzamide] | < 10 | 
Cc1n[nH]c(C)c1S(=O)(=O)Nc1cccc(C(=O)Nc2ccc(F)c(Cl)c2)c1 [Compound 201, N-(3-chloro-4-fluorophenyl)-3-(3,5-dimethyl-1H-pyrazole-4-sulfonamido)benzamide] | < 10 | 
O=C(Nc1ccc(F)c(Cl)c1)c1cccc(NS(=O)(=O)N2CCC(OCc3ccccc3)CC2)c1 [Compound 207, 3-(4-(benzyloxy)piperidine-1-sulfonamido)-N-(3-chloro-4-fluorophenyl)benzamide] | < 10 | 
